Laboratory results: patent US20200390755A1, “COMPOUND FOR TREATING NERVOUS SYSTEM DISEASES AND USE THEREOF” (SHAANXI MICOT TECHNOLOGY CO., LTD., priority 2018, published 2020)

Experiments:
[1] = tested on: N171-82Q HD mice; assay: Slope balance beam experiment, HD mice; format: in vivo, mouse; settings: 5 mg/kg/d intragastric
Protocol: (§1) 7-week-old N171-82Q HD male mice were paired with female B6C3F1/J hybrid mice to obtain newborn mice. From 21 days of age, male mice were housed in separate cages. 0.5 cm of mouse tail tissue was removed to extract DNA to determine the genotype of the mouse, such that N171-82Q HD mice and WT mice needed for the experiment were obtained. The mice were randomly divided into WT Vehicle group (normal mice), WT test compound group (administration group of normal mice, 5 mg/kg/d, n=10), HD Vehicle group (blank group of HD mice, n=15), HD test compound group (administration groups 1-5 of HD mice, 5 mg/kg/d, n=10). The test compound was suspended in 1% CMC-Na solution and administered by intragastric administration until the end of the study. The weights of the mice were measured every week. Behavioral tests were performed at 12 weeks, 18 weeks, and 24 weeks of age to investigate motor function. At 20 weeks, 3 samples of tissue from each group were used for western blotting and immunohistochemistry. At 24 weeks, MRI scans were performed. At the end of the study, the effect of the test compound on the mortality of mice was evaluated.
(§2) The software Sigmaplot 13.0 was used for statistical analysis of the data, and the data of each group was expressed as mean standard error (x±SEM). Behavioral test results were analyzed using two-way (genotype and processing factor) ANOVA and post-ho tests, the comparison and statistics of weight data were performed using two-way (genotype and age) ANOVA of repeated measures, and mortality was counted using Kaplan-Meier method. Other measurement data were analyzed by one-way ANOVA. P<0.05 was considered statistically significant.
(§3) The motor function of mice was evaluated by the rotarod experiment and three types of balance beam experiments. The shorter the time for mouse to cross the balance beam, and the longer the time to drop, the stronger the coordination ability of the mouse.
(§4) A square balance beam with a length of 100 cm and a width of 11 mm was placed at a 45-degree angle to the horizontal ground. A black box (12×12×12 cm) was placed at the end of the balance beam, and the starting platform was illuminated by bright lights. Spacers were placed under the balance beam to provide cushioning in case that the animal falls off the beam. One hour before the test, the mice were trained to cross the beam three times at one-eighth, one-quarter, and full-length distances from the black box, respectively. If the mice stopped walking during training, they were gently pressed with long forceps on the tail to encourage movement. After the training experiment, the mice rested for at least one hour in an undisturbed environment. In the experiment, the maximum time for each mouse to cross the balance beam was set to 60 seconds. If the time for crossing the beams was greater than 60 seconds, it was recorded as 60 seconds.

[2] = tested on: rats with permanent cerebral ischemia; assay: Neurobehavioral scoring in rats with permanent cerebral ischemia (MCAO thread plug); format: in vivo, SD rats; settings: 20 mg/kg by gavage
Protocol: SD rats, male, about 220-250 g, were provided by the Experimental Animal Center of Medical College of Xi'an Jiaotong University. Rats were randomly divided into groups of 14 animals/group. The experiment included a sham group, a model group, a positive control Edaravone group and test compound groups 1-5.12 hours before the operation, the rats were fasted and were free to drink water, and then used for the modeling method of middle cerebral artery occlusion with thread plug. The rats were fixed on a wooden board after anesthesia, the common carotid artery was ligated proximally, the external carotid artery was ligated distally, and the main internal carotid artery into skull was retained. A ligature line was reserved at the bifurcation of the internal carotid artery for temporarily clamping the distal end of the internal carotid artery using an arterial clip. A 3-0 nylon thread with a length of 5 cm and a spherical shape with a diameter of 0.3 mm at the tip was inserted into the common carotid artery through a small incision at the bifurcation. The arterial clamp was loosened, and the thread plug was slowly advanced to 18˜20 mm. When there was resistance, the progress of the thread was stopped. At this time, the nylon thread plug entered the middle artery and blocked the blood flow, and then the ischemic phase began. The skin was sutured. In the sham operation group, the same procedure was executed, except that no thread plug was inserted.
Administering was performed at 0 h, 3 h, 6 h and 12 h after ischemia, and then administering was performed once a day for 7 consecutive days. The test compound was prepared into a 4 mg/mL solution with 1% CMC-Na solution and administered by gavage. The edaravone group received an intravenous dose of 0.078 mg/kg.
2) The rats were lifted at its tail about 1 foot off the ground to observe the condition of both forelimbs. The rats were placed on a level ground and pushed on both shoulders to observe the difference in resistance on both sides. The rats were placed on the ground to observe the walking. The assessment was conducted using a five-grade four-point scoring method (0 to 4 points). The higher the score, the more severe the neurobehavioral damage.
0 point: the behavior is completely normal;
1 point: when the rat is lifted at its tail off the ground, the forelimb on the opposite side of the operation rotates and folds inwardly.
2 points: when the rat is placed on a level ground and pushed on both shoulders to observe the difference in resistance on both sides, the resistance on the opposite side of the operation reduces;
3 points: when the rat is placed on the ground to the walking, it circles around the opposite side of the operation;
4 points: The injury is so severe that the rat is unable to move independently.
(2) Statistical analysis of data: SPSS18.0 statistical software was used for statistical analysis and the data of each group was expressed as the mean standard error (x±SEM). One-way ANOVA and multiple comparisons between groups were used to compare the averages of measurement data among multiple groups. Rank score test was used for behavioral grading data, and Kaplan-Meier method was used for mortality. P<0.05 was considered statistically significant.

[3] = tested on: N171-82Q HD mice; assay: High-altitude balance beam (11 mm) experiment 1, HD mice; format: in vivo, mouse; settings: 5 mg/kg/d intragastric
Protocol: as §1, §2, §3, §4
a round balance beam with a length of 80 cm and a diameter of 11 mm was place at a height of about 50 cm from the ground. The following steps are the same as the slope balance beam experiment.

[4] = tested on: N171-82Q HD mice; assay: High-altitude balance beam (5 mm) experiment 2, HD mice; format: in vivo, mouse; settings: 5 mg/kg/d intragastric
Protocol: as §1, §2, §3, §4
a square balance beam with a length of 80 cm and a width of 5 mm was place at a height of about 50 cm from the ground. The following steps are the same as the slope balance beam experiment.

[5] = tested on: N171-82Q HD mice; assay: Rotarod experiment, HD mice; format: in vivo, mouse; settings: 5 mg/kg/d intragastric
Protocol: as §1, §2, §3
The maximum time for mice fatigue rotarod was set to 5 minutes, and the acceleration was set from 4 rpm up to 40 rpm. Time record was began when the mouse was placed on the rotarod. The time the mouse remained on the rod, i.e., drop latent period, was recorded to indicate its motor coordination ability. One day before the rotarod experiment, each mouse was trained for 5 minutes, and then rested in the cage after the training session. On the day of the experiment, the mice were placed on the rotating rotarod for three rounds of tests, with a 30-minute rest between tests before entering the next round of test. The result was the average of the three tests.

SMILES | Time for crossing the beams, slope balance beam ([1]; 12 w) | Time for crossing the beams, slope balance beam ([1]; 18 w) | Time for crossing the beams, slope balance beam ([1]; 24 w) | Neurobehavioral score (0 to 4 points) ([2]; 6 h after ischemia) | Neurobehavioral score (0 to 4 points) ([2]; 1 d after ischemia) | Neurobehavioral score (0 to 4 points) ([2]; 2 d after ischemia) | Neurobehavioral score (0 to 4 points) ([2]; 3 d after ischemia) | Neurobehavioral score (0 to 4 points) ([2]; 4 d after ischemia) | Neurobehavioral score (0 to 4 points) ([2]; 5 d after ischemia) | Neurobehavioral score (0 to 4 points) ([2]; 6 d after ischemia) | Neurobehavioral score (0 to 4 points) ([2]; 7 d after ischemia) | Time for crossing the beams, high-altitude balance beam (11 mm) ([3]; 12 w) | Time for crossing the beams, high-altitude balance beam (11 mm) ([3]; 18 w) | Time for crossing the beams, high-altitude balance beam (11 mm) ([3]; 24 w) | Time for crossing the beams, high-altitude balance beam (5 mm) ([4]; 12 w) | Time for crossing the beams, high-altitude balance beam (5 mm) ([4]; 18 w) | Time for crossing the beams, high-altitude balance beam (5 mm) ([4]; 24 w) | Time to drop (drop latent period), rotarod ([5]; 12 w) | Time to drop (drop latent period), rotarod ([5]; 18 w) | Time to drop (drop latent period), rotarod ([5]; 24 w)
O=c1cc(-c2ccc(N3CCCCC3)cc2)oc2c(O)c(O)ccc12 [Example 1, 7,8-dihydroxy-2-(4-(piperidin-1-yl)phenyl)-4H-chromen-4-one] | 15.18 ± 3.95 s | 14.09 ± 3.18 s | 18.09 ± 6.02 s | 2.07 ± 0.22 | 2.11 ± 0.2 | 1.88 ± 0.35 | 2.13 ± 0.23 | 1.88 ± 0.35 | 2 ± 0.38 | 1.86 ± 0.34 | 1.17 ± 0.17 | 8.20 ± 1.64 s | 7.55 ± 2.42 s | 9.18 ± 3.84 s | 13.09 ± 4.39 s | 12.09 ± 3.27 s | 13.91 ± 3.33 s | 95.90 ± 23.32 s | 101.03 ± 32.39 s | 83.55 ± 29.07 s
COc1ccc2c(=O)cc(-c3ccc(N4CCCCC4)cc3)oc2c1OC [Example 2, 7,8-dimethoxy-2-(4-(piperidin-1-yl)phenyl)-4H-chromen-4-one] | 17.88 ± 2.83 s | 17.13 ± 4.76 s | 19.00 ± 6.84 s | 2.13 ± 0.17 | 2.04 ± 0.13 | 2.20 ± 0.25 | 1.98 ± 0.45 | 1.87 ± 0.27 | 2.11 ± 0.16 | 1.79 ± 0.28 | 1.21 ± 0.22 | 8.98 ± 1.75 s | 8.59 ± 2.18 s | 9.68 ± 2.97 s | 12.13 ± 4.97 s | 13.96 ± 2.74 s | 14.32 ± 5.44 s | 98.89 ± 21.35 s | 107.40 ± 27.48 s | 89.67 ± 30.76 s
